The subject of test [1] is Escherichia coli. The test is described as follows: Antibacterial activity against Escherichia coli RCMB-010052 assessed as diameter of inhibition zone at 5 mg/ml by diffusion technique. The test is classed as functional. Conditions: read-out: DIZ.
A further test concerns Bacillus cereus. The test can be described thus: Antibacterial activity against Bacillus cereus RCMB-010067 assessed as diameter of inhibition zone at 5 mg/ml by diffusion technique. The test is classed as functional. Conditions: read-out: DIZ.
For a further test, the system named is HepG2. The test is described as follows: Anticancer activity against human HepG2 cells by MTT assay. The test is classed as functional, cell-based.
Test [2] has as its system Candida albicans. The test can be described thus: Antifungal activity against Candida albicans RCMB-05036 assessed as diameter of inhibition zone at 5 mg/ml by diffusion technique. The test is classed as functional. Conditions: read-out: DIZ.
Test [3] relates to Staphylococcus aureus. The test can be described thus: Antibacterial activity against Staphylococcus aureus RCMB-010010 assessed as diameter of inhibition zone at 5 mg/ml by diffusion technique. Conditions: read-out: DIZ. It counts as functional.
Another test deals with Aspergillus fumigatus. The test is described as follows: Antifungal activity against Aspergillus fumigatus RCMB-02568 assessed as diameter of inhibition zone at 5 mg/ml by diffusion technique. The following applies: read-out: DIZ. It counts as functional.
For another test, the system named is Geotrichum candidum. The test is described as follows: Antifungal activity against Geotrichum candidum RCMB-05097 assessed as diameter of inhibition zone at 5 mg/ml by diffusion technique. The test is classed as functional. The following applies: read-out: DIZ.
Test [4] deals with Syncephalastrum racemosum. The test can be described thus: Antifungal activity against Syncephalastrum racemosum RCMB-05922 assessed as diameter of inhibition zone at 5 mg/ml by diffusion technique. Conditions: read-out: DIZ. It counts as functional.
Test [5] has as its system Pseudomonas aeruginosa. The test can be described thus: Antibacterial activity against Pseudomonas aeruginosa RCMB-010043 assessed as diameter of inhibition zone at 5 mg/ml by diffusion technique. The test is classed as functional. Conditions: read-out: DIZ.
The next test relates to Bacillus subtilis. The test is described as follows: Antibacterial activity against Bacillus subtilis MTCC 441 incubated for 24 hrs by two-fold serial dilution method. The test is classed as functional.
For the next test, the system named is Aspergillus brasiliensis. The test is described as follows: Antifungal activity against Aspergillus brasiliensis MTCC 1344 incubated for 7 days by microdilution method. The test is classed as functional. Conditions: MTCC 1344, 168 h, time 7 day.
The subject of test [6] is Staphylococcus aureus. The test can be described thus: Antibacterial activity against Staphylococcus aureus MTCC 7443 incubated for 24 hrs by two-fold serial dilution method. It counts as functional.
The subject of test [7] is Candida albicans. The test can be described thus: Antifungal activity against Candida albicans MTCC 227 incubated for 2 days by microdilution method. It counts as functional. Conditions: MTCC 227, 48 h, time 2 day.
Test [8] concerns Pseudomonas aeruginosa. The test can be described thus: Antibacterial activity against Pseudomonas aeruginosa MTCC 424 incubated for 24 hrs by two-fold serial dilution method. It counts as functional.
For test [9], the system named is Bacillus spizizenii. The test is described as follows: Antibacterial activity against Bacillus subtilis ATCC 6633 incubated for 24 hrs by broth dilution method. It counts as functional.
The test system of a further test is Micrococcus luteus. The test can be described thus: Antibacterial activity against Micrococcus luteus IFC 12708 incubated for 24 hrs by broth dilution method. It counts as functional.
In test [10] the test system is Staphylococcus aureus. The test is described as follows: Antibacterial activity against Staphylococcus aureus ATCC 6538p incubated for 24 hrs by broth dilution method. The test is classed as functional.
The subject of the next test is Salmonella typhimurium. The test can be described thus: Antibacterial activity against Salmonella typhimurium ATCC 14028 incubated for 24 hrs by broth dilution method. The test is classed as functional, Salmonella enterica subsp. enterica serovar Typhimurium. Conditions: Salmonella enterica.
The subject of test [11] is Escherichia coli. The test can be described thus: Antibacterial activity against Escherichia coli ATCC 25922 incubated for 24 hrs by broth dilution method. It counts as functional.
Test [12] concerns Proteus vulgaris. The test can be described thus: Antibacterial activity against Proteus vulgaris ATCC 3851 incubated for 24 hrs by broth dilution method. The test is classed as functional.
Test [13] deals with Staphylococcus aureus. The test can be described thus: Antibacterial activity against methicillin-sensitive Staphylococcus aureus ATCC 29213. The test is classed as functional.
Test [14] deals with Staphylococcus aureus. The test is described as follows: Antibacterial activity against methicillin-resistant Staphylococcus aureus ATCC 33591. The test is classed as functional.
For test [15], the system named is Klebsiella pneumoniae. The test is described as follows: Antibacterial activity against Klebsiella pneumoniae 7. The test is classed as functional.
Test [16] concerns Staphylococcus epidermidis. The test can be described thus: Antibacterial activity against methicillin-resistant Staphylococcus epidermidis 13-3. The test is classed as functional.
For a further test, the system named is Morganella morganii. The test is described as follows: Antibacterial activity against Morganella morganii ATCC 25830. It counts as functional.
Test [17] concerns Proteus vulgaris. The test can be described thus: Antibacterial activity against Proteus vulgaris ATCC 29905. It counts as functional.
In test [18] the test system is Enterococcus faecalis. The test is described as follows: Antibacterial activity against Enterococcus faecalis ATCC 29212 after overnight incubation by CLSI M7-A9 based method. It counts as functional.
The test system of test [19] is Staphylococcus epidermidis. The test is described as follows: Antibacterial activity against methicillin-sensitive Staphylococcus epidermidis ATCC 12228. The test is classed as functional.
In the next test the test system is Proteus mirabilis. The test can be described thus: Antibacterial activity against Proteus mirabilis 13-1. It counts as functional.
For a further test, the system named is Klebsiella aerogenes. The test can be described thus: Antibacterial activity against Enterobacter aerogenes ATCC 13048. It counts as functional.
Test [20] relates to Enterococcus faecium. The test can be described thus: Antibacterial activity against Enterococcus faecium ATCC 700221. It counts as functional.
In test [21] the test system is Escherichia coli. The test can be described thus: Antibacterial activity against Escherichia coli 14-11. It counts as functional.
Another test deals with Enterobacter cloacae. The test can be described thus: Antibacterial activity against Enterobacter cloacae ATCC 43560. It counts as functional.
The test system of test [22] is Klebsiella pneumoniae. The test can be described thus: Antibacterial activity against Klebsiella pneumoniae ATCC 700603. The test is classed as functional.
Test [23] concerns Escherichia coli. The test can be described thus: Antibacterial activity against Escherichia coli ATCC 25922 after overnight incubation by CLSI M7-A9 based method. The test is classed as functional.
In test [24] the test system is Enterococcus faecium. The test is described as follows: Antibacterial activity against Enterococcus faecium 13-7. The test is classed as functional.
For test [25], the system named is Pseudomonas aeruginosa. The test is described as follows: Antibacterial activity against Pseudomonas aeruginosa ATCC 27853. The test is classed as functional.
A further test deals with Serratia marcescens. The test is described as follows: Antibacterial activity against Serratia marcescens ATCC 21074. The test is classed as functional.
For a further test, the system named is Providencia rettgeri. The test is described as follows: Antibacterial activity against Providencia rettgeri ATCC 31052. It counts as functional.
A further test relates to Citrobacter freundii. The test can be described thus: Antibacterial activity against Citrobacter freundii ATCC 43864. It counts as functional.
The test system of test [26] is Stenotrophomonas maltophilia. The test can be described thus: Antibacterial activity against Stenotrophomonas maltophilia ATCC 13636. The test is classed as functional.
Test [27] relates to Enterococcus faecalis. The test can be described thus: Antibacterial activity against Enterococcus faecalis ATCC 51299. It counts as functional.
Test [28] concerns Acinetobacter calcoaceticus. The test can be described thus: Antibacterial activity against Acinetobacter calcoaceticus ATCC 19606. The test is classed as functional.
Test [29] deals with Proteus vulgaris. The test can be described thus: Antibacterial activity against Proteus vulgaris ATCC 4636 assessed as inhibition zone. It counts as functional.
Test [30] concerns Pseudomonas aeruginosa. The test is described as follows: Antibacterial activity against Pseudomonas aeruginosa ATCC 27853 assessed as inhibition zone. It counts as functional.
The test system of test [31] is Escherichia coli. The test is described as follows: Antibacterial activity against Escherichia coli ATCC 25922 assessed as inhibition zone. It counts as functional.
The test system of test [32] is Staphylococcus aureus. The test is described as follows: Antibacterial activity against Staphylococcus aureus ATCC 25923 assessed as inhibition zone. The test is classed as functional.
Test [33] has as its system Bacillus spizizenii. The test is described as follows: Antibacterial activity against Bacillus subtilis ATCC 6633 assessed as inhibition zone. The test is classed as functional.

Here are results for 8 compounds from ChEMBL document CHEMBL4699440, “Comprehensive review on the anti-bacterial activity of 1,2,3-triazole hybrids” (Eur J Med Chem, 2019).

≈ marks a conversion by molar mass, not a printed value.

In the case of `COC(=O)c1ccc(-n2nc(N)c(C(=O)NCCNC(=O)c3nn(-c4ccc(C(=O)OC)cc4)nc3N)n2)cc1`, the zone of inhibition at 5000 µg/mL in the test on Escherichia coli [1], with Bacillus cereus, with Candida albicans [2], in the test with Staphylococcus aureus [3], with Aspergillus fumigatus and in the test on Geotrichum candidum was 20.4 mm throughout. Further, the zone of inhibition at 5000 µg/mL (in test [4]; with Pseudomonas aeruginosa [5]) was 20.4 mm throughout. Further, in the test on HepG2, half-maximal inhibition (IC50) required 11.6 µg/mL (≈ 21.1 µM).

For `O=C(Cn1cc(COc2ccc(OCc3cn(CC(=O)Nc4ccccc4)nn3)cc2)nn1)Nc1ccccc1`, the MIC in the test on Bacillus subtilis, against Aspergillus brasiliensis, with Staphylococcus aureus [6], with Candida albicans [7] and in the test with Pseudomonas aeruginosa [8] was 0.0928 µM (≈ 0.05 µg/mL) in each case.

As to `CC1(C)O[C@H]2O[C@@H]([C@H]3SC(Cc4nc5ccccc5[nH]4)C(=O)N3c3ccc(Cl)cc3)[C@@H](OCc3cn(-c4ccc(Cl)cc4)nn3)[C@H]2O1` (some centres not stated), the MIC with Bacillus spizizenii [9], with Micrococcus luteus, in the test with Staphylococcus aureus [10], in the test on Salmonella typhimurium, against Escherichia coli [11] and with Proteus vulgaris [12] was 1.56 µg/mL (≈ 2.25 µM) each time.

In the case of `Cc1ccc(-n2nc(N)c(C(=O)NCCNC(=O)c3nn(-c4ccc(C)cc4)nc3N)n2)cc1`, the zone of inhibition at 5000 µg/mL with Escherichia coli [1], in the test with Bacillus cereus, in the test on Candida albicans [2], with Staphylococcus aureus [3], with Aspergillus fumigatus and in the test with Geotrichum candidum was 8.3 mm throughout. The zone of inhibition at 5000 µg/mL (in test [4]; in the test with Pseudomonas aeruginosa [5]) was 8.3 mm throughout.

Consider `COc1ccc(NC(=O)Cn2cc(COc3ccc(OCc4cn(CC(=O)Nc5ccc(OC)cc5)nn4)cc3)nn2)cc1`, for which the minimal inhibitory concentration (MIC) in the test on Bacillus subtilis, against Aspergillus brasiliensis, with Staphylococcus aureus [6], with Candida albicans [7] and with Pseudomonas aeruginosa [8] was 0.167 µM (≈ 0.1 µg/mL) throughout.

Consider `COc1c(N2CCN(CCn3ccnn3)CC2)c(F)cc2c(=O)c(C(=O)O)cn(C3CC3)c12`, for which the MIC (in the test on Staphylococcus aureus [13]; with Staphylococcus aureus [14]; in the test with Klebsiella pneumoniae [15]; in test [16]; against Morganella morganii; against Proteus vulgaris [17]) was at least 0.5 µg/mL in each case. For the same compound, the MIC (against Enterococcus faecalis [18]; in test [19]; with Proteus mirabilis; in the test on Klebsiella aerogenes; with Enterococcus faecium [20]; with Escherichia coli [21]) was at least 0.5 µg/mL in each case. Besides, the MIC in the test with Enterobacter cloacae, with Klebsiella pneumoniae [22], in the test with Escherichia coli [23], in the test on Enterococcus faecium [24], against Pseudomonas aeruginosa [25] and against Serratia marcescens was at least 0.5 µg/mL each time. Besides, the MIC (in the test on Providencia rettgeri; in the test on Citrobacter freundii; in test [26]; against Enterococcus faecalis [27]; in test [28]) was at least 0.5 µg/mL each time.

The compound `CC[C@]1(O)C[C@@H]2CN(CCc3c([nH]c4ccccc34)[C@@](C(=O)OC)(c3cc4c(cc3OC)N(C)[C@H]3[C@@](O)(C(=O)OC)[C@H](OC(C)=O)[C@]5(CC)C=CCN6CC[C@]43[C@@H]65)C2)C1` [VINBLASTINE] had a 50% inhibitory concentration (IC50) with HepG2 of 4.6 µg/mL (≈ 5.67 µM).

Consider `O=C(OCc1cn(Cc2cccc(F)c2)nn1)c1cccc2c(=O)c3ccccc3[nH]c12`, for which the “inhibition zone (IZ)” value with Proteus vulgaris [29], in the test with Pseudomonas aeruginosa [30], in the test on Escherichia coli [31], in the test on Staphylococcus aureus [32] and in the test on Bacillus spizizenii [33] was 9.5 mm in each case.
